Legend:
[1] = system: patients with a primary diagnosis of PTSD; assay: Methylone PTSD case series with long-term follow-up (Example 5): CGI-I and safety; assay type: in vivo, human
Text: The patients were not given structured psychotherapy in conjunction with methylone treatment, which differs from recent studies of MDMA that emphasize the importance of a manualized psychedelic-assisted psychotherapy model.
No protectedhealth information was disclosed, and no consent was obtained from patients for use of their archival data. Case narratives were systematically compiled from data collected as part of routine clinical work. Diagnoses were confirmed by an experienced clinician using semi-structured interviews. Baseline symptom severity was evaluated using the Clinical Global Impressions Scale-Severity ([…]). Symptom improvement was evaluated using the Clinical Global Impressions Scale-Improvement (CGI-I) following dosing. […] Because these case narratives were examined retrospectively from routine clinical care records, and not gathered prospectively in a research study, more specific validated rating scales for assessing PTSD symptoms were not available. Additionally, follow-up varied, with the length of follow-up ranging from one week (Case 2) to 15 years (Case 16).
Dosing summary: Methylone was administered orally. Other medications were not changed during methylone treatment. […] In several cases, treatment was continued and, in some cases, the dose was further escalated in later sessions (see Table 5). Booster doses were included for 19 patients in one or more of the sessions. Starting doses were between 100 and 270 mg, and these as well as booster doses were selected based on clinical judgement.

[2] = system: mice; assay: Fear extinction paradigm, mouse model of PTSD; assay type: in vivo
Text: (FIG. 9A) Schematic of experimental design. A single CS-US (tone-shock) pairing on day 1 was followed by 6 CS presentations in a novel context (context B). […] On day 3, the time spent freezing to the CS was quantified. […] (FIG. 9C) No locomotor changes were observed on day 3 (t(26)=1.073, p>0.05). Data are mean +/− SEM.
FIGS. 10A-10B: MBDB improves fear extinction in a mouse model of PTSD. A single CS-US (tone-shock) pairing on day 1 was followed by 6 conditioned stimulus (CS) presentations in a novel context (context B). MBDB or saline vehicle was injected 30 min prior to extinction training on day 2. The time spent freezing to the CS was quantified on […]. […] Data are mean +/− SEM. N=10 for MBDB group (5 mg/kg, IP) and N=16 for saline control group. **p<0.01 vs. vehicle control group.
Effective PTSD treatments facilitate the disassociation between a traumatic memory and the patient's fear response, making cues for the traumatic memory evoke less of a fear response. This is modeled in the mouse fear extinction paradigm (see FIG. 9A) which takes place over 3 days. On day 1 (fear conditioning), mice are trained to acquire a “traumatic memory,” namely associating the conditioned stimulus (CS, tone) to the unconditioned stimulus (US, foot shock). On day 2 (extinction training), they are trained to forget the traumatic memory association by presenting the CS 6 times (with no US) in a novel environment. On day 3 (extinction recall), the mice are “asked” if that tone (CS) still elicits a fearful response, as measured by the time spent freezing when the tone is presented. Less time freezing means better extinction recall. Drugs that improve extinction recall reduce freezing time on day 3, and, therefore, show potential as a PTSD treatment.

[3] = system: rats; assay: Open field test (OFT); assay type: in vivo, rat; details: single methylone dose 5 or 15 mg/kg IP, 30 minutes before testing
Procedure: Data are mean +/− SEM. N=6 per group. * p<0.05; **p<0.01 vs. vehicle control group.
Method: Consecutive beam breaks and/or video-tracking of time spent in the center versus periphery of the open field are measured. Also measured are parameters such as distance traveled and ambulatory activity (horizontal and vertical) for the duration of the test session.
The open field test (OFT) capitalizes on a rodent's innate fear of open spaces to assess anxiety-like behavior. More time spent in the center of an open field reflects an anxiolytic (anti-anxiety) effect.

[4] = target: T1, serotonin transporter (SERT) (Rattus norvegicus, UniProt P31652); assay: [3H]5HT uptake saturation in rat brain synaptosomes with or without methylone; assay type: biochemical
T1 construct: from tissue; host or cells: rat brain synaptosomes
T1 sequence (P31652 whole entry): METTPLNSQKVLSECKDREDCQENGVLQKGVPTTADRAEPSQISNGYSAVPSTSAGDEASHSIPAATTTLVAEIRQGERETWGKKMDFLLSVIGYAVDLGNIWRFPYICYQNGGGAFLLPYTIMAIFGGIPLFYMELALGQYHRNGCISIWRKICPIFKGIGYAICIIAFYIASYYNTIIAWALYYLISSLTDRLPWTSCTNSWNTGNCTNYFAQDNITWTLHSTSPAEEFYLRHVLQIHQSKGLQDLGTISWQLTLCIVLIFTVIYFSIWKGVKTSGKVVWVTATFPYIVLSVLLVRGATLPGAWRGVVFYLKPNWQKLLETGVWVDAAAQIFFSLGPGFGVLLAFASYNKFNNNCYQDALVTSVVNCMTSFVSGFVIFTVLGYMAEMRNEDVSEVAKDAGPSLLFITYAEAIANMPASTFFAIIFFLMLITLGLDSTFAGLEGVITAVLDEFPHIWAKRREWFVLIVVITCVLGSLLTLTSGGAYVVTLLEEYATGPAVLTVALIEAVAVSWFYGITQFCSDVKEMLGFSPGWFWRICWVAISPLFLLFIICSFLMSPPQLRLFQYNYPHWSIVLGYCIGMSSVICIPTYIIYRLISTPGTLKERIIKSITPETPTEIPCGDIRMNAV

[5] = target: serotonin transporter (Homo sapiens, UniProt P31645); details: cited from earlier work
Sequence of serotonin transporter (P31645 whole entry): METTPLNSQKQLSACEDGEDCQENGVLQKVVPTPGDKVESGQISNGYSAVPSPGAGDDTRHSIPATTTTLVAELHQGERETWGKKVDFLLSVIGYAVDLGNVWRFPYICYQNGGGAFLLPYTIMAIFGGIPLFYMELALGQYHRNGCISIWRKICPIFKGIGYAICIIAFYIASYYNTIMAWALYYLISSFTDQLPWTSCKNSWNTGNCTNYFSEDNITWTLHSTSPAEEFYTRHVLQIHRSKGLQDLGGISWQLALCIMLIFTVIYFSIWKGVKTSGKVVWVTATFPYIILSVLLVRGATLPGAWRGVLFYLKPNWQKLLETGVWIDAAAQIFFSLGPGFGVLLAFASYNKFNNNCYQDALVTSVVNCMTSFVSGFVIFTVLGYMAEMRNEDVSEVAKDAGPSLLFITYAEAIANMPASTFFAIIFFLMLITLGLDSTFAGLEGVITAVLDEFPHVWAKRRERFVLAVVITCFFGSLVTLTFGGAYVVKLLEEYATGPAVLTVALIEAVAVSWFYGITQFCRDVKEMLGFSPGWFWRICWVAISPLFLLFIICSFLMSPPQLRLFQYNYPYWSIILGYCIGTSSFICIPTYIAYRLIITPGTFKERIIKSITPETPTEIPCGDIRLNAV

[6] = cited from earlier work
[7] = rats, intraperitoneal administration

Question: For CNC(C)C(=O)c1ccc2c(c1)OCO2 (stereo not drawn) [methylone, 3,4-methylenedioxy-N-methylcathinone], which “patients achieving CGI-I much improved or very much improved” value ([1]; 21 PTSD patients) is on record?
Answer: The value was 81%.

Question: And the tolerability ([1]; 21 PTSD patients)?
Answer: The tolerability was “generally well tolerated”.

Question: And the “patients reporting a durable effect” value ([1]; durability captured for 17 of 21 patients)?
Answer: The value was 16.

Question: And the “total adverse events noted” value ([1]; in three of the 21 patients, none severe)?
Answer: The value was “four”.

Question: And the “patients with durable effect >six months” value ([1]; in vivo)?
Answer: The value was 11.

Question: And the “patients achieving a CGI-I of 1 or 2” value ([1]; of 21 PTSD patients)?
Answer: The value was 17.

Question: And the “patients achieving CGI-I scores of 1 or 2” value ([1]; patients who received only a single dose of methylone (n=9))?
Answer: The value was 89%.

Question: What about the “patients with initial improvement after the initial session” value ([1]; patients with multiple methylone dosing sessions (n=12)) of the same molecule?
Answer: Its value is 83%.

Question: And the “enhancement of fear extinction recall compared to saline controls (reduced freezing on day 3)” value ([2]; methylone 30 mg/kg IP 30 min prior to extinction training)?
Answer: Its value is roughly 60%.

Question: What about the “locomotion during the testing session” value ([2]; methylone 30 mg/kg IP, day 3) of the same molecule?
Answer: The value was “no differences between groups”.

Question: And the “time spent in the center of the open field compared to vehicle” value [3]?
Answer: Its value is “significantly increases”.

Question: What about the “type of interaction at the SERT” value [4] of the same molecule?
Answer: Its value is “competitive”.

Question: What about the “Bmax of [3H]5HT uptake” value ([4]; in the presence of methylone) of the same molecule?
Answer: The value was “no decrease”.

Question: And the “Kd of [3H]5HT uptake” value ([4]; in the presence of methylone)?
Answer: Its value is “right shifted”.

Question: What about the “affinity for the serotonin transporter lower by comparison to MDMA” value [5] of the same molecule?
Answer: The value was 3 ×.

Question: And the “half-life shorter than MDMA” value ([6]; rat, in vivo)?
Answer: Its value is greater than 50%.

Question: And the half-life [6, 7]?
Answer: The half-life was 1 to 2 h.

Question: And the “time of peak brain and serum concentration” value [6, 7]?
Answer: Its value is 15 to 30 min.

Source: patent US20250221957A1, “PS[…] AND THEIR USE FOR TREATING […] AND NE[…] DISORDERS” (Transcend Therapeutics, Inc., priority 2021, published 2025)
